The conditions of data set [1]: single brainstem infusions, concentrations as high as 1 mg/ml; cited from earlier work.
A short description of data set [2]: Coinfusion of carboplatin and gadolinium-DTPA into pig corona radiata (T1 MRI, LA-ICP-MS). It is filed as in vivo. As to conditions: carboplatin 0.03 mg/ml coinfused with 0.3% gadolinium-DTPA, CED. Here is the method: Carboplatin infusions were undertaken into male Large White Landrace pigs weighing 45 kg using a cannula system developed in-house. Pig anaesthesia, head immobilisation and brain imaging were achieved as we have previously described White et al (2010). Infusions of 120 μl 0.03 mg/ml carboplatin mixed with 0.3% (6 μmol/l) Gadolinium-DTPA (Magnevist: Bayer Healthcare, Germany), were undertaken bilaterally into the corona radiata using a cannula composed of a length of fused silica (outer diameter 220 μm, inner diameter 150 μm) bonded to a glass Hamilton syringe. Except for the distal 3 mm, this fused silica tube was supported along its length by a series of zirconia tubes to ensure that it could be accurately inserted to target. Infusions were performed using the following regime: 0.5 μl/min for 5 min, 1 μl/min for 5 min, 2.5 μl/min for 5 min and then 5 μl/min for 20 min. This regime was employed in an attempt to minimise the occurrence of a sudden surge in pressure at the catheter tip due to elasticity in the infusion tubing. 120 μl was infused as this is the largest volume that we have previously infused into pig white matter without leakage into the ventricular system. Following infusion completion, the cannula was left in place for 10 min prior to being withdrawn slowly by hand. CSF leakage from the burr hole and cannula track was sealed with Cerebond prior to wound closure. […]

SMILES strings stand for the structures.

Consider one compound from US20160136284A1, “GLIOMA TREATMENT” (priority 2012, published 2016).

For `N.N.O=C([O-])C1(C(=O)[O-])CCC1.[Pt+2]` [carboplatin], the histological tissue damage entry in data set [1] is “without histological evidence of tissue damage”. In addition, the “distribution in pig corona radiata (LA-ICP-MS)” value in data set [2] is on record as “widespread carboplatin distribution”.
